target: T1, DP receptor (Homo sapiens, UniProt Q13258); test: SPA cAMP assay in human LS174 T cells (human DP functional assay); assay type: cell-based; conditions: inhibition of PGD2 (15 nM)-stimulated cAMP, LS174T cells expressing endogenous DP receptor
T1 construct: using the human cell line LS174T, which expresses the endogenous DP receptor; endogenous in cells; host or cells: LS174T human cell line
T1 sequence (Q13258 1-359): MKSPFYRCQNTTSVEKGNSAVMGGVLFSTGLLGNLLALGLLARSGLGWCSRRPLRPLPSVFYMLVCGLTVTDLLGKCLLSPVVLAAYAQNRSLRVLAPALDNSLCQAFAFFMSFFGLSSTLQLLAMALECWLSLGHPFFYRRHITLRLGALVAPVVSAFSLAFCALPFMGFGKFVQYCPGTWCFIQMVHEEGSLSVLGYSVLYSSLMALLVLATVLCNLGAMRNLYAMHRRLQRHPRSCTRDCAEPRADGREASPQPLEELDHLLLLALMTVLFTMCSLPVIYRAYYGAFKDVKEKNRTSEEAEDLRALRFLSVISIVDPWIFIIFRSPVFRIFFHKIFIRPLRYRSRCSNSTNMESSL
Protocol: The inhibitory effects of the compounds according to the invention are assessed in a human DP functional assay. A cAMP assay is employed using the human cell line LS174T, which expresses the endogenous DP receptor. The protocol is similar to that described previously (Wright D H, Ford-Hutchinson A W, Chadee K, Metters K M, The human prostanoid DP receptor stimulates mucin secretion in LS174T cells, Br J Pharmacol. 131(8):1537-45 (2000)).
Protocol for SPA cAMP Assay in Human LS174 T Cells
• PGD2 (Cayman Chemical Cat#12010) • IBMX (Sigma Cat# 5879) • cAMP SPA direct screening assay system (Amersham code RPA 559) • 96-well cell plates (Wallac Cat# 1450-516) • Wallac 1450 Microplate Trilux scintillation counter (PerkinElmer) • Plate sealers • Eppendorf tubes • Dulbecco's Phosphate-Buffered Saline (PBS) (Invitrogen Cat#14040-133) • Distilled water • Vortex • Magnetic stirrer and stirrer bars Reagent Preparation:
All reagents should be allowed to equilibrate to room temperature before reconstitution.
Transfer the contents of the bottle to a 500 mL graduated cylinder by repeated washing with distilled water. Adjust the final volume to 500 mL with distilled water and mix thoroughly.
Dissolve each of the lysis reagents 1 and 2 in 200 mL assay buffer respectively. Leave at room temperature for 20 minutes to dissolve.
Add 30 mL of lysis buffer 2 to the bottle. Gently shake the bottle for 5 minutes.
Add 15 mL of lysis buffer 2 to each vial, and gently mix until the contents are completely dissolved.
Add 14 mL lysis buffer 2 to each vial and gently mix until the contents are completely dissolved.
Preparation of Immunoreagent
• 1) Add equal volumes of tracer, antiserum and SPA anti-rabbit reagent to a bottle, ensuring that a sufficient volume of this mixture is prepared for the desired number of wells (150 μL/well). • 2) Mix thoroughly. • 3) This immunoreagent solution should be freshly prepared before each assay and not re-used. Standard • 1) Add 1 mL lysis buffer 1 and gently mix until contents are completely dissolved. • 2) The final solution contains cAMP at a concentration of 512 pmol/mL. • 3) Label 7 polypropylene or polystyrene tubes, 0.2 pmol, 0.4 pmol, 0.8 pmol, 1.6 pmol, 3.2 pmol, 6.4 pmol and 12.8 pmol. • 4) Pipette 500 μL of lysis buffer 1 into all the tubes. • 5) Into the 12.8 pmol tube pipette 500 μL of stock standard (512 pmol/mL) and mix thoroughly. Transfer 500 μL from 12.8 pmol tube to the 6.4 pmol tube and mix thoroughly. Repeat this doubling dilution successively with the remaining tubes.
6) 50 μL aliquots in duplicate from each serial dilution and the stock standard will give rise to 8 standard levels of cAMP ranging from 0.2-25.6 pmol standard
Add 50 μL of […] IBMX into 100 mL PBS to make a final concentration of 100 μM and sonicate at 30° C. for 20 minutes.
Dissolve 1 mg PGD2 (FW, 352.5) in 284 μL DMSO to make 10 mM stock solution and store at […]. Before each assay, it is freshly prepared. Add 3 μL of 10 mM stock solution to 20 mL DMSO, mix it thoroughly, and transfer 10 mL to 40 mL PBS.
Compound dilution is carried out in Biomex 2000 (Beckman) using Method 1_cAMP DP 11 points.
5 μL of each compound from the 10 mM stock compound plates is transferred to the wells of a 96-well plate respectively as below.
Fill the plate with 45 μL of DMSO except column 7 is filled with 28 μL DMSO. Pipette column 1 thoroughly, and transfer 12 μL into column 7 parallel. Perform 1:10 serial dilution from column 1 to column 6 and from column 7 to column 11 by transfer 5 μL to 45 μL DMSO to make following concentrations:
Fill a new 96-well plate with 247.5 μL of compound dilution buffer. Transfer 2.5 μL of serially diluted compounds from above plate to the new plate (1:100 dilution) as following:
Cell Growth • 1. LS174 T are always grown in MEM (ATCC Cat# 30-2003), 10% FBS (ATCC Cat# 30-2020) and additional 2 mM L-glutamine, at 37° C. and 5% CO2. • 2. Warm 0.05% Trypsin and Versine (Invitrogen Cat# 25300-054) at 37° C. water bath. • 3. […]

Structure (SMILES) | IC50 [nM]
O=C(O)Cc1c(-c2ccc(Cl)c(S(=O)(=O)NC3CC4CCC3C4)c2)[nH]c2ccccc12 (stereo not shown) [Example 1(b), {2-[3-(Bicyclo[2.2.1]hept-2-ylsulfamoyl)-4-chloro-phenyl]-1H-indol-3-yl}-acetic acid] | 3
CCCCCCNS(=O)(=O)c1cc(-c2[nH]c3ccccc3c2CC(=O)O)ccc1Cl [Example 1(c), [2-(4-Chloro-3-hexylsulfamoyl-phenyl)-1H-indol-3-yl]-acetic acid] | 31
O=C(O)Cc1c(-c2ccc(Cl)c(S(=O)(=O)NC3Cc4ccccc4C3)c2)[nH]c2ccccc12 [Example 1(d), {2-[4-Chloro-3-(indan-2-ylsulfamoyl)-phenyl]-1H-indol-3-yl}-acetic acid] | 9.6
CC(C)NS(=O)(=O)c1cc(-c2[nH]c3ccccc3c2CC(=O)O)ccc1Cl [Example 1(g), [2-(4-Chloro-3-isopropylsulfamoyl-phenyl)-1H-indol-3-yl]-acetic acid] | 49
O=C(O)Cc1c(-c2ccc(Cl)c(S(=O)(=O)NCC34CC5CC(CC(C5)C3)C4)c2)[nH]c2ccccc12 [Example 1(m), (2-[4-Chloro-3-[(tricyclo[3.3.1.13.7]decan-1-ylmethyl)-sulfamoyl]-phenyl]-1H-indol-3-yl)-acetic acid] | 8.6
O=C(O)Cc1c(-c2ccc(Cl)c(S(=O)(=O)N3CCCCC3)c2)[nH]c2ccccc12 [Example 1(p), {2-[4-Chloro-3-(piperidine-1-sulfonyl)-phenyl]-1H-indol-3-yl}-acetic acid] | 678
O=C(O)Cc1c(-c2ccc(Cl)c(S(=O)(=O)NCc3ccc(C(F)(F)F)cc3)c2)[nH]c2ccccc12 [Example 1(y), {2-[4-Chloro-3-(4-trifluoromethyl-benzylsulfamoyl)-phenyl]-1H-indol-3-yl}-acetic acid] | 19
Cn1c(-c2ccc(Cl)c(S(=O)(=O)NC3CCCCC3)c2)c(CC(=O)O)c2ccccc21 [Example 2(a), [2-(4-Chloro-3-cyclohexylsulfamoyl-phenyl)-1-methyl-1H-indol-3-yl]-acetic acid] | 52
O=C(O)Cc1c(-c2ccc(Cl)c(S(=O)(=O)NC3CCCCC3)c2)n(Cc2ccccc2)c2ccccc12 [Example 2(b), [1-Benzyl-2-(4-chloro-3-cyclohexylsulfamoyl-phenyl)-1H-indol-3-yl]-acetic acid] | 42
Cn1c(-c2ccc(Cl)c(S(=O)(=O)NC3CCCCC3)c2)c(CCO)c2ccccc21 [Example 9, 2-Chloro-N-cyclohexyl-5-[3-(2-hydroxy-ethyl)-1-methyl-1H-indol-2-yl]-benzenesulfonamide] | 8710
CN(C1CCCCC1)S(=O)(=O)c1cccc(-c2[nH]c3ccccc3c2CC(=O)O)c1 [Example 10(e), {2-[3-(Cyclohexyl-methyl-sulfamoyl)-phenyl]-1H-indol-3-yl}-acetic acid] | 346
O=C(O)Cc1c(-c2ccc(S(=O)(=O)NC3CCCCC3)cc2)[nH]c2ccccc12 [Example 10(h), [2-(4-Cyclohexylsulfamoyl-phenyl)-1H-indol-3-yl]-acetic acid] | 1160

Continued, values first:

IC50 [nM] | Structure (SMILES)
2.2 | O=C(O)Cc1c(-c2ccc(Cl)c(S(=O)(=O)NC3CCCCC3)c2)[nH]c2ccccc12 [Example 1(a), [2-(4-Chloro-3-cyclohexylsulfamoyl-phenyl)-1H-indol-3-yl]-acetic acid]
35 | O=C(O)Cc1c(-c2ccc(Cl)c(S(=O)(=O)NCCC3CCCCC3)c2)[nH]c2ccccc12 [Example 1(h), {2-[4-Chloro-3-(2-cyclohexyl-ethylsulfamoyl)-phenyl]-1H-indol-3-yl}-acetic acid]
52 | O=C(O)Cc1c(-c2ccc(Cl)c(S(=O)(=O)NC3CCOCC3)c2)[nH]c2ccccc12 [Example 1(o), {2-[4-Chloro-3-(tetrahydro-pyran-4-ylsulfamoyl)-phenyl]-1H-indol-3-yl}-acetic acid]
4 | CC(C)(C)c1ccc2[nH]c(-c3ccc(Cl)c(S(=O)(=O)NC4CCCCC4)c3)c(CC(=O)O)c2c1 [Example 1(s), [5-tert-Butyl-2-(4-chloro-3-cyclohexylsulfamoyl-phenyl)-1H-indol-3-yl]-acetic acid]
4.2 | O=C(O)Cc1c(-c2ccc(Cl)c(S(=O)(=O)NC3CCCCC3)c2)[nH]c2ccc(OC(F)(F)F)cc12 [Example 1(v), [2-(4-Chloro-3-cyclohexylsulfamoyl-phenyl)-5-trifluoromethoxy-1H-indol-3-yl]-acetic acid]
346 | CN(C1CCCCC1)S(=O)(=O)c1cc(-c2[nH]c3ccccc3c2CC(=O)O)ccc1Cl [Example 1(x), {2-[4-Chloro-3-(cyclohexyl-methyl-sulfamoyl)-phenyl]-1H-indol-3-yl}-acetic acid]
160 | COC(=O)[C@@H](NC(=O)Cc1c(-c2ccc(Cl)c(S(=O)(=O)NC3CCCCC3)c2)[nH]c2ccccc12)C(C)C [Example 3(a), (S)-2-{2-[2-(4-chloro-3-cyclohexylsulfamoyl-phenyl)-1H-indol-3-yl]-acetylamino}-3-methyl-butyric acid methyl ester]
5 | O=C(Cc1c(-c2ccc(Cl)c(S(=O)(=O)NC3CCCCC3)c2)[nH]c2ccccc12)NS(=O)(=O)c1ccccc1 [Example 6, 5-[3-(2-Benzenesulfonylamino-2-oxo-ethyl)-1H-indol-2-yl]-2-chloro-N-cyclohexyl benzenesulfonamide]
132 | NC(=O)Cc1c(-c2ccc(Cl)c(S(=O)(=O)NC3CCCCC3)c2)[nH]c2ccccc12 [Example 7(a), 2-[2-(4-Chloro-3-cyclohexylsulfamoyl-phenyl)-1H-indol-3-yl]-acetamide]
3 | COc1ccc2[nH]c(-c3ccc(Cl)c(S(=O)(=O)NC4CCCCC4)c3)c(CC(=O)O)c2c1 [Example 10(a), [2-(4-Chloro-3-cyclohexylsulfamoyl-phenyl)-5-methoxy-1H-indol-3-yl]-acetic acid]
4.2 | O=C(O)Cc1c(-c2ccc(Cl)c(S(=O)(=O)NC3CCCCC3)c2)[nH]c2ccc(O)cc12 [Example 10(c), [2-(4-Chloro-3-cyclohexylsulfamoyl-phenyl)-5-hydroxy-1H-indol-3-yl]-acetic acid]
1 | O=C(O)Cc1c(-c2ccc(Cl)c(S(=O)(=O)NC3CCCCC3)c2)[nH]c2cc(Cl)ccc12 [Example 10(d), [6-Chloro-2-(4-chloro-3-cyclohexylsulfamoyl-phenyl)-1H-indol-3-yl]-acetic acid]
106 | O=C(O)Cc1c(-c2cccc(S(=O)(=O)NC3CCCCC3)c2)[nH]c2ccccc12 [Example 10(f), [2-(3-Cyclohexylsulfamoyl-phenyl)-1H-indol-3-yl]-acetic acid]

Reference: patent US20070265278A1, “2-PHENYL-INDOLES AS PROSTAGLANDIN D2 RECEPTOR ANTAGONISTS” (Aventis Pharmaceuticals Inc., priority 2005, published 2007)
